According to US5230998A, “Method for the prescreening of drugs targeted to the V3 hypervariable loop of the HIV-1 envelope glycoprotein gp 120” (priority 1991, dated 1993):
Entries after “also recorded” stand apart in the source; their conditions may differ.

Columns and labels:
peptide (492-518) [1] = target: T1, peptide (492-518) (Human immunodeficiency virus type 1 BH10, UniProt P03375); assay: Attachment of ATA determined by anti-ATA antibodies (double antibody RIA); type: binding, HIV-1 BH 10; conditions: FIG. 1C
T1 sequence (P03375 492-518): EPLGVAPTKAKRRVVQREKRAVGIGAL
Description: (§1) Antibodies to ATA were detected by double antibody RIA using wells coated with an ATA-ovalbumin conjugate. This conjugate was prepared in the same way as described for the ATA-BSA conjugate. Dilution endpoints of anti-ATA antibodies, determined as described by Ritchie, D. G., Nickerson, J. M., and Fuller, G. M. (1983), "Two Simple Programs for the Analysis of Data from Enzyme-linked Immunosorbent Assays (ELISA) on a Programmable Desk-top Calculator," Methods in Enzymology, 92, 577-588) of the two antisera were: 1:2,700 and 1:150,000, respectively. The second antiserum was used for subsequent RIA tests.
(§2) ATA was also added to a control peptide, (518-542), and to wells coated with gelatin only. After incubation for 4 hours at 20° C., excess ATA was removed, the wells were washed with TS and attached ATA was determined by double-antibody RIA using serial dilutions of the anti-ATA antiserum. Similar tests were carried out with serum from the same rabbit before immunization with the ATA-BSA conjugate; the corresponding results (100-450 cpm) were subtracted from cpm corresponding to RIA results obtained with the anti-ATA antiserum. For additional assays aimed at determining the binding of ATA to synthetic peptides from gp120 and gp41 of HIV-1 BH 10 and to V3 hypervariable loop peptides from 20 additional HIV-1 isolates, anti-ATA antiserum was used at a final dilution of 1:800.

[2] = target: T2, V3 hypervariable loop peptide (303-338) (Human immunodeficiency virus type 1 BH10, UniProt P03375); assay: as above; type: binding, HIV-1 BH 10; conditions: FIG. 1C, FIG. 2
T2 construct: cut from Env gp160
T2 sequence (P03375 296-331): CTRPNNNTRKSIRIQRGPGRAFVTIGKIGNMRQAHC
Description: as §1, §2

peptide (492-518) [3] = target: T1, peptide (492-518); assay: Inhibition by ATA of reaction between peptide and homologous antibodies (FIG. 1B); type: binding, HIV-1 BH 10; conditions: ATA 50 μg/ml
Description: (§3) FIG. 1 comprises four bar graphs concerning the interaction of aurintricarboxylic acid (ATA) with the V3 hypervariable loop of gp120 and with distinct peptides derived from the sequence of gp160. FIG. 1A: Inhibitory effect of ATA (50 μg/ml) on the reaction of antibodies to peptides from the sequence of HIV-1 gp160 with gp120 or gp160. gp120-coated wells were used for antisera to peptides from gp120 and gp160-coated wells were used with antisera to peptides from gp41. FIG. 1B: Inhibitory effect of ATA (50 μg/ml) on the reaction between antibodies to peptides from gp120/gp41 and homologous peptides. FIG. 1C: binding of ATA to wells coated with distinct peptides from the sequence of gp160, as determined by subsequent binding of anti-ATA antibodies. FIG. ID: Net electric charge of peptides from the sequence of gp160, determined by subtracting the number of aspartic (D) and glutamic (E) residues from the sum of lysine (K) and arginine (R) residues present in distinct segments of the gp160 sequence. The horizontal dotted line indicates the boundary between non-significant and significant inhibition, established from three times repeated experiments.
(§4) Wells of 96 well polystyrene plates (Immulon 2, Dynatech Laboratories, Inc., Chantilly, Va.) were coated with synthetic peptides (200 μl; 20μg/ml in 0.1 M Tris-HCl, pH 8.8) overnight at 20° C. The peptides were from the sequence of HIV-1, clone BH 10 envelope glycoproteins gp120 and gp41 (Neurath, A. R., Strick, N., and Lee, E. Y. S. (1990), "B-cell Epitope Mapping of Human Immunodeficiency virus (HIV-1) Envelope Glycoprotein with Long (19 to 36-residue) Synthetic Peptides", J. Gen. Virol., 71., 85-95) and from V3 hypervariable loops of 21 distinct HIV-1 isolates (clones) Neurath, A. R., and Strick, N., (1990), "Confronting the Hypervariability of an Immunodominant Epitope Eliciting Virus Neutralizing Antibodies from the Envelope Glycoprotein of the Human Immunodeficiency Virus Type 1 (HIV-1)", Molec. Immunol., 27, 539-549. The latter peptides corresponded to full-length V3 loops generated by disulfide bonds between N- and C- terminal cysteine residues. After washing with 0.14 M NaCl, 0.01 M Tris, 0.02% NaN3 (TS), the wells were postcoated with a mixture of bovine serum albumin (BSA) and gelatine (10 and 2.5 mg/ml, respectively) in TS. […]
(§5) To define sites on gp120/gp41 reacting with ATA, the inhibitory effect of this compound was studied by RIA tests using gp120- and gp160-coated wells, respectively, and antisera (final dilutions 1:150) against synthetic peptides from the entire sequence of gp120/gp41 of HIV-1 BH 10. […] Attached rabbit IgG was detected using ^125 I-labeled anti-rabbit IgG, as described before (Neurath et al., 1990, J. Gen. Virol., 71, 85-95). […]

[4] = target: T2, V3 hypervariable loop peptide (303-338); assay: as above; type: binding, HIV-1 BH 10; conditions: ATA 50 μg/ml
Description: as §3, §4, §5

[5] = target: peptide (845-862) from gp41 (Human immunodeficiency virus type 1 BH10, UniProt P03375); assay: as above; type: binding, HIV-1 BH 10; conditions: ATA 50 μg/ml
Chain of peptide (845-862) from gp41 (P03375 512-856): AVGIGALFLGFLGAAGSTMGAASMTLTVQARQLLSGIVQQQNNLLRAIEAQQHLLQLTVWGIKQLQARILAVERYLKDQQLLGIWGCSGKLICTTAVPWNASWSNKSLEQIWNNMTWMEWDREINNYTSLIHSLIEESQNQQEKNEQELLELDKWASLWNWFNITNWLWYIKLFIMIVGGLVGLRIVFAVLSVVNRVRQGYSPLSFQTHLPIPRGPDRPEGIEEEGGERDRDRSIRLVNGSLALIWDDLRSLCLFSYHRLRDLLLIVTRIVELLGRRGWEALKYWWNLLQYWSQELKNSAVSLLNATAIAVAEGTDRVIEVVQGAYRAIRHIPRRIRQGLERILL
Description: as §3, §4, §5

peptide (331-361) = peptide (331-361) (Human immunodeficiency virus type 1 BH10, UniProt P03375); assay: as above; type: binding, HIV-1 BH 10; conditions: ATA 50 μg/ml
Chain of peptide (331-361) (P03375 324-354): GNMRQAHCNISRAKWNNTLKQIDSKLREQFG
Description: as §3, §4, §5

HIV-1 = conditions: literature; listed as ATA; cited from earlier work
CD4 receptor = conditions: literature; listed as ATA; cited from earlier work

O=C(O)C1=CC(=C(c2ccc(O)c(C(=O)O)c2)c2ccc(O)c(C(=O)O)c2)C=CC1=O [substance #122, aurintricarboxylic acid]
binding of ATA to peptide (anti-ATA antibodies) (peptide (492-518) [1]): bound to the peptide (492-518) | binding of ATA to peptide (anti-ATA antibodies) [2]: most efficient binder of ATA | inhibition of reaction of peptide with homologous antibodies (peptide (492-518) [3]): did not inhibit the reaction between this peptide and homologous anti-peptide antibodies | inhibition of reaction of peptide with homologous antibodies [4]: most dramatically inhibited | inhibition of reaction of peptide with homologous antibodies [5]: Inhibition was also observed | inhibition of reaction of peptide with homologous antibodies (peptide (331-361)): Inhibition was also observed | inhibition of HIV-1 replication / antiviral activity (HIV-1): inhibited the replication of HIV-1 in vitro; also recorded: inhibit the cytopathogenicity and replication of the human immunodeficiency virus type 1 | inhibition of the interaction with CD4 receptor (CD4 receptor): inhibited the interaction of the CD4 receptor for HIV-1; also recorded: inhibiting the interaction between HIV-1 virions and cellular CD4 receptors
